Reference: patent US10385057B2, “Pyrazole compounds and methods of making and using same” (Lundbeck La Jolla Research Center, Inc., priority 2015, dated 2019)

Assays:
MAGL = target: T1, MAGL (Mus musculus, UniProt O35678); experiment: In vitro competitive activity-based protein profiling, mouse MAGL; assay type: biochemical; details: for inhibition at 1 µM: read-out: MAGL % inh. 1 μM (mouse)
T1 construct: mouse brain membrane fraction or cell lysates for mouse assays; from tissue
T1 sequence (O35678 1-303): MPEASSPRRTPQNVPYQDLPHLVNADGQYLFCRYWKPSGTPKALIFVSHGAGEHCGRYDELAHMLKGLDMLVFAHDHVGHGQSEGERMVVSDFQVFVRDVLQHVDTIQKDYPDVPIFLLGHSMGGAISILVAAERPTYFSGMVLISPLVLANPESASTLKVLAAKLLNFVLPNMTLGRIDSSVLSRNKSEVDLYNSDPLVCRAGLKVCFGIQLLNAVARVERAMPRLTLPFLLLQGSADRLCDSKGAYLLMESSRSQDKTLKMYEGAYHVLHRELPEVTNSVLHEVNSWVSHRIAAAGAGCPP
Procedure, shortened: (§1)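 Activity measured as fluorescent gel-band intensity of MAGL and FAAH after SDS-PAGE. Before labelling with FP-Rh or HT-01 (30 min, 37 °C), proteomes at 1.0 mg/mL (mouse brain membrane or lysates; human prefrontal cortex or cell membranes) were exposed to varying inhibitor concentrations for 30 min at 37 °C.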

FAAH = target: T2, FAAH (Mus musculus, UniProt O08914); experiment: In vitro competitive activity-based protein profiling, mouse FAAH; assay type: biochemical; details: for inhibition at 1 µM: read-out: FAAH % inh. 1 μM (mouse)
T2 construct: mouse brain membrane fraction or cell lysates for mouse assays; from tissue
T2 sequence (O08914 1-579): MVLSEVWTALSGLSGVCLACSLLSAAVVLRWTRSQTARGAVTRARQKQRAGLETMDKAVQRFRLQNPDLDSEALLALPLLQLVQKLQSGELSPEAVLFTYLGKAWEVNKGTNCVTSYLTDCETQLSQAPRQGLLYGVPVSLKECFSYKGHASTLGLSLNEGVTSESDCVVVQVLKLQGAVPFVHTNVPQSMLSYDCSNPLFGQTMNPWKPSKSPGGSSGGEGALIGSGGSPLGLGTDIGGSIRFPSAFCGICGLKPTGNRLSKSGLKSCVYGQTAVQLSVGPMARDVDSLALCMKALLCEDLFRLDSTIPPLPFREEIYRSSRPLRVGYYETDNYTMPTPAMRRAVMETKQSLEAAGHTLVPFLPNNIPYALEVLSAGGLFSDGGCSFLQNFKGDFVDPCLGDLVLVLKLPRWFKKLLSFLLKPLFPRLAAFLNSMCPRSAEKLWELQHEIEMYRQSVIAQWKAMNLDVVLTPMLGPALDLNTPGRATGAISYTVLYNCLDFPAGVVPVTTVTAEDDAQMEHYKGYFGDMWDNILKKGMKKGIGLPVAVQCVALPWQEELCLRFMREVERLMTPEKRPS
Procedure, shortened: as §1

SMILES | MAGL % inh. 1 μM (mouse) (MAGL; 1 μM) | FAAH % inh. 1 μM (mouse) (FAAH; 1 μM) | IC50 (MAGL) [nM] | inhibition at 1 µM (MAGL; 1 μM) [%] | IC50 (FAAH) [nM] | inhibition at 1 µM (FAAH; 1 μM) [%]
CNC(=O)c1cnn(C(=O)N2C[C@H]3C[C@@H](N(C)Cc4ccccc4Cl)C[C@H]3C2)c1 [Example 84, 1-(cis-5-((2-chlorobenzyl)(methyl)amino)octahydrocyclopenta[c]pyrrole-2-carbonyl)-N-methyl-1H-pyrazole-4-carboxamide] | A (% inhibition greater than or equal to 75%) | A (% inhibition greater than or equal to 75%) | – | – | – | –
O=C(c1cnn(C(=O)N2CC3CN(Cc4ccc(N5CCOCC5)cc4C(F)(F)F)CC3C2)c1)N1CCN(C2CC2)CC1 (stereo not drawn) [Example 14, (4-cyclopropylpiperazin-1-yl)(1-(5-(4-morpholino-2-(trifluoromethyl)benzyl)octahydropyrrolo[3,4-c]pyrrole-2-carbonyl)-1H-pyrazol-4-yl)methanone] | – | – | 100 to 1000 | ≥ 75 | 1000 to 10000 | ≥ 75
CNC(=O)c1cnn(C(=O)N2CC3CN(Cc4cccc(C(F)(F)F)c4)CC3C2)c1 (stereo not drawn) [Example 24, N-methyl-1-(5-(3-(trifluoromethyl)benzyl)octahydropyrrolo[3,4-c]pyrrole-2-carbonyl)-1H-pyrazole-4-carboxamide] | – | – | ≤ 100 | ≥ 75 | ≤ 100 | ≥ 75
O=C(N1CC2CN(Cc3cccc(Cl)c3)CC2C1)n1cc(Cl)cn1 (stereo not drawn) [Example 117, (4-chloro-1H-pyrazol-1-yl)(5-(3-chlorobenzyl)hexahydropyrrolo[3,4-c]pyrrol-2(1H)-yl)methanone] | – | – | ≤ 100 | ≥ 75 | ≤ 100 | ≥ 75
O=C(N1CC2CN(Cc3cccc(C(F)(F)F)c3)CC2C1)n1cc(C(F)(F)F)cn1 (stereo not drawn) [Example 143, (4-(trifluoromethyl)-1H-pyrazol-1-yl)(5-(3-(trifluoromethyl)benzyl)hexahydropyrrolo[3,4-c]pyrrol-2(1H)-yl)methanone] | – | – | ≤ 100 | ≥ 75 | ≤ 100 | ≥ 75
O=C(N1CC2CN(Cc3ccc(F)cc3)CC2C1)n1cc(C(F)(F)F)cn1 (stereo not drawn) [Example 146, (5-(4-fluorobenzyl)hexahydropyrrolo[3,4-c]pyrrol-2(1H)-yl)(4-(trifluoromethyl)-1H-pyrazol-1-yl)methanone] | – | – | ≤ 100 | ≥ 75 | ≤ 100 | ≥ 75
CN(Cc1ccccc1Cl)[C@H]1C[C@@H]2CN(C(=O)n3cc(C(=O)N4CCN(C5CC5)CC4)cn3)C[C@@H]2C1 [Example 95, (trans-5-((2-chlorobenzyl)(methyl)amino)hexahydrocyclopenta[c]pyrrol-2(1H)-yl)(4-(4-cyclopropylpiperazine-1-carbonyl)-1H-pyrazol-1-yl)methanone] | – | – | – | ≥ 75 | – | 0 to 25
O=C(N1CC2CN(Cc3ccc(F)cc3N3CCOCC3)CC2C1)n1cc(Cl)cn1 (stereo not drawn) [Example 100, (4-chloro-1H-pyrazol-1-yl)(5-(4-fluoro-2-morpholinobenzyl)hexahydropyrrolo[3,4-c]pyrrol-2(1H)-yl)methanone] | – | – | ≤ 100 | ≥ 75 | 100 to 1000 | ≥ 75
O=C(c1cnn(C(=O)N2CC3CN(Cc4cc(Cl)ccc4Cl)CC3C2)c1)N1CCN(C2CC2)CC1 (stereo not drawn) [Example 6, (4-cyclopropylpiperazin-1-yl)(1-(5-(2,5-dichlorobenzyl)octahydropyrrolo[3,4-c]pyrrole-2-carbonyl)-1H-pyrazol-4-yl)methanone] | – | – | – | ≥ 75 | – | 0 to 25
O=C(c1cnn(C(=O)N2CC3CN(Cc4cccc(C(F)(F)F)c4)CC3C2)c1)N1CCCC1 (stereo not drawn) [Example 15, pyrrolidin-1-yl(1-(5-(3-(trifluoromethyl)benzyl)octahydropyrrolo[3,4-c]pyrrole-2-carbonyl)-1H-pyrazol-4-yl)methanone] | – | – | – | ≥ 75 | – | ≥ 75
CN(Cc1ccc(C(F)(F)F)c(N2CCCC2)c1)[C@H]1C[C@@H]2CN(C(=O)n3cc(C(N)=O)cn3)C[C@@H]2C1 [Example 216, 1-(trans-5-(methyl(3-(pyrrolidin-1-yl)-4-(trifluoromethyl)benzyl)amino)octahydrocyclopenta[c]pyrrole-2-carbonyl)-1H-pyrazole-4-carboxamide] | – | – | – | ≥ 75 | – | ≥ 75
O=C(c1cnn(C(=O)N2CCC3(CCN(Cc4cccc(C(F)(F)F)c4)C3)C2)c1)N1CCN(C2CC2)CC1 (stereo not drawn) [Example 33, (4-cyclopropylpiperazin-1-yl)(1-(7-(3-(trifluoromethyl)benzyl)-2,7-diazaspiro[4.4]nonane-2-carbonyl)-1H-pyrazol-4-yl)methanone] | – | – | – | ≥ 75 | – | 50 to 75
CN(Cc1ccc(C(F)(F)F)cc1)[C@H]1C[C@@H]2CN(C(=O)n3cc(C(=O)N4CCOCC4)cn3)C[C@@H]2C1 [Example 184, (trans-5-(methyl(4-(trifluoromethyl)benzyl)amino)hexahydrocyclopenta[c]pyrrol-2(1H)-yl)(4-(morpholine-4-carbonyl)-1H-pyrazol-1-yl)methanone] | – | – | – | 50 to 75 | – | ≥ 75
O=C(N1C[C@H]2C[C@H](NCc3ccccc3Cl)C[C@H]2C1)n1cc(Cl)cn1 [Example 64, (4-chloro-1H-pyrazol-1-yl)(trans-5-((2-chlorobenzyl)amino)hexahydrocyclopenta[c]pyrrol-2(1H)-yl)methanone] | – | – | ≤ 100 | ≥ 75 | ≤ 100 | ≥ 75
NC(=O)c1cnn(C(=O)N2CC3CN(Cc4ccc(N5CCOCC5)cc4C(F)(F)F)CC3C2)c1 (stereo not drawn) [Example 2, 1-(5-(4-morpholino-2-(trifluoromethyl)benzyl)octahydropyrrolo[3,4-c]pyrrole-2-carbonyl)-1H-pyrazole-4-carboxamide] | – | – | ≤ 100 | ≥ 75 | ≤ 100 | ≥ 75
NC(=O)c1cnn(C(=O)N2CC3CN(Cc4cccc(C(F)(F)F)c4)CC3C2)c1 (stereo not drawn) [Example 23, 1-(5-(3-(trifluoromethyl)benzyl)octahydropyrrolo[3,4-c]pyrrole-2-carbonyl)-1H-pyrazole-4-carboxamide] | – | – | – | ≥ 75 | – | ≥ 75
Cc1cccc(CN2CCC3(CCN(C(=O)n4cc(C(F)(F)F)cn4)C3)C2)c1 (stereo not drawn) [Example 170, (7-(3-methylbenzyl)-2,7-diazaspiro[4.4]nonan-2-yl)(4-(trifluoromethyl)-1H-pyrazol-1-yl)methanone] | – | – | 100 to 1000 | ≥ 75 | ≤ 100 | ≥ 75
CN(Cc1ccc(-c2cnccn2)cc1C(F)(F)F)[C@@H]1C[C@@H]2CN(C(=O)n3cc(C(N)=O)cn3)C[C@@H]2C1 [Example 226, 1-(cis-5-(methyl(4-(pyrazin-2-yl)-2-(trifluoromethyl)benzyl)amino)octahydrocyclopenta[c]pyrrole-2-carbonyl)-1H-pyrazole-4-carboxamide] | – | – | – | ≥ 75 | – | ≥ 75
CN(Cc1ccc(Oc2ccccc2)cc1)[C@@H]1C[C@@H]2CN(C(=O)n3cc(Cl)cn3)C[C@@H]2C1 [Example 158, (4-chloro-1H-pyrazol-1-yl)(cis-5-(methyl(4-phenoxybenzyl)amino)hexahydrocyclopenta[c]pyrrol-2(1H)-yl)methanone] | – | – | – | ≥ 75 | – | ≥ 75
O=C(N1CCC2(CCN(Cc3ccc(N4CCOCC4)cc3)C2)C1)n1cc(Cl)cn1 (stereo not drawn) [Example 136, (4-chloro-1H-pyrazol-1-yl)(7-(4-morpholinobenzyl)-2,7-diazaspiro[4.4]nonan-2-yl)methanone] | – | – | 100 to 1000 | ≥ 75 | 100 to 1000 | ≥ 75
O=C(N1CCC2(CCN(Cc3ccccc3)C2)C1)n1cc(Cl)cn1 (stereo not drawn) [Example 114, (7-benzyl-2,7-diazaspiro[4.4]nonan-2-yl)(4-chloro-1H-pyrazol-1-yl)methanone] | – | – | – | 50 to 75 | – | ≥ 75
O=C(N1CCC2(CCN(Cc3cccc(Cl)c3)C2)C1)n1cc(Cl)cn1 (stereo not drawn) [Example 113, (4-chloro-1H-pyrazol-1-yl)(7-(3-chlorobenzyl)-2,7-diazaspiro[4.4]nonan-2-yl)methanone] | – | – | 100 to 1000 | ≥ 75 | ≤ 100 | ≥ 75
